Data from publication PMC4468608, “A distinct p53 target gene set predicts for response to the selective p53–HDM2 inhibitor NVP-CGM097” (eLife, 2015).
Like-named read-outs stand apart in the source and are kept apart here.

Key:
NCI-H2122 = assay: Repeat cell proliferation assay; assay type: cell-based, human; conditions: NCI-H2122 TP53 mutant (Q16L and C176F)
Text: . Cell lines were partitioned into sensitive and insensitive groups based on compound potency (IC50). […]. Forty seven cell lines were categorized as sensitive and 309 cell lines as insensitive. For the sensitive cell lines, the maximal compound effect level (Amax) was ≤ −50% (Figure 1C,D, Figure 1—source data 1). […].

[1] = PK parameters in preclinical species; assay type: in vivo; conditions: Mouse
[2] = PK parameters in preclinical species; assay type: in vivo; conditions: Monkey
[3] = PK parameters in preclinical species; assay type: in vivo; conditions: Dog
HCT-116 p53WT = assay: Cell proliferation assay (YOPRO); assay type: cell-based; conditions: Homo sapiens, HCT-116, read-out: HCT-116 p53WT GI50
Experimental: (§1) Figure 1. […] (^d) Selectivity is determined by the ratio of GI50 obtained using SAOS-2 (p53-null) and SJSA-1 (p53^WT and HDM2-amplified) osteosarcoma pair of cell lines. […] The data used to generate these plots, as well as cell line identity is available in Figure 1—source data 1. […] The blue color indicates the reverse profile. Brighter colors indicate which target classes pass the 0.25 FDR cut-off.
(§2) All other cell lines were obtained from ATCC (American Type Culture Collection), DSMZ (Deutsche Sammlung von Mikroorganismen und Zellkulturen), and HSRRB (Health Science Research Resources Bank) and cultured in RPMI or Dulbecco's modified Eagle's medium plus 10% FBS (Invitrogen, Carlsbad, CA) at 37°C, 5% CO2.

SAOS-2 (p53-null) = assay: Cell proliferation assay (YOPRO); assay type: cell-based; conditions: Homo sapiens
Experimental: as §1, §2

[4] = system: SJSA-1 (p53WT and HDM2-amplified); assay: Cell proliferation assay (YOPRO); assay type: cell-based; conditions: Homo sapiens, SJSA-1, read-out: SJSA-1 GI50
Experimental: as §1, §2

HCT-116 p53-null = assay: Cell proliferation assay (YOPRO); assay type: cell-based; conditions: Homo sapiens, HCT116-p53-null
Experimental: as §1, §2

[5] = PK parameters in preclinical species; assay type: in vivo; conditions: Rat
[6] = single dose 1 mg/kg i.v. or 3 mg/kg p.o.
[7] = in vivo, iv, 1 mg/kg i.v., dose-normalized to 1 mg/kg, read-out: AUCinf i.v.
[8] = in vivo, iv, single dose 1 mg/kg i.v. or 3 mg/kg p.o.
[9] = in vivo, iv, single dose 1 mg/kg i.v. or 3 mg/kg p.o., read-out: Vss
[10] = in vivo, po, 3 mg/kg p.o., dose-normalized to 1 mg/kg
[11] = in vivo, po, 3 mg/kg p.o., dose-normalized to 1 mg/kg, read-out: AUCinf p.o.
[12] = single dose 0.1 mg/kg i.v. or 0.3 mg/kg p.o.
[13] = in vivo, iv, 0.1 mg/kg i.v., dose-normalized to 1 mg/kg, read-out: AUCinf i.v.
[14] = in vivo, iv, single dose 0.1 mg/kg i.v. or 0.3 mg/kg p.o.
[15] = in vivo, iv, single dose 0.1 mg/kg i.v. or 0.3 mg/kg p.o., read-out: Vss
[16] = in vivo, po, 0.3 mg/kg p.o., dose-normalized to 1 mg/kg
[17] = in vivo, po, 0.3 mg/kg p.o., dose-normalized to 1 mg/kg, read-out: AUCinf p.o.

COc1cc2c(cc1OC(C)C)[C@H](c1ccc(Cl)cc1)N(c1ccc(N(C)C[C@H]3CC[C@H](N4CCNC(=O)C4)CC3)cc1)C(=O)C2 [NVP-CFC218]
sensitivity in repeat cell proliferation assays (NCI-H2122): confirmed | Oral BA ([1]; 1 mg/kg i.v., 3 mg/kg p.o.): 43 %F | t1/2app. [1, 6]: 3.6 h | AUC(0-inf) [1, 7]: 2.8 µM·h | clearance [1, 8]: 9 mL/min/kg | Vd [1, 9]: 3.1 L/kg | Tmax ([1]; in vivo, po, 3 mg/kg p.o.): 2 h | Cmax [1, 10]: 94 nM | AUC(0-inf) [1, 11]: 1.2 µM·h | Oral BA ([2]; 0.1 mg/kg i.v., 0.3 mg/kg p.o.): 14 ± 2 %F | t1/2app. [2, 12]: 2.6 ± 0.3 h | AUC(0-inf) [2, 13]: 2.37 ± 0.31 µM·h | clearance [2, 14]: 11 ± 2 mL/min/kg | Vd [2, 15]: 2.1 ± 0.3 L/kg | Tmax ([2]; in vivo, po, 0.3 mg/kg p.o.): 1 ± 0.1 h | Cmax [2, 16]: 77 ± 14 nM | AUC(0-inf) [2, 17]: 0.34 ± 0.05 µM·h | Oral BA ([3]; 0.1 mg/kg i.v., 0.3 mg/kg p.o.): 71 ± 8 %F | t1/2app. [3, 12]: 14.4 ± 0.7 h | AUC(0-inf) [3, 13]: 8.08 ± 1.68 µM·h | clearance [3, 14]: 3 ± 1 mL/min/kg | Vd [3, 15]: 3.6 ± 0.5 L/kg | Tmax ([3]; in vivo, po, 0.3 mg/kg p.o.): 3.3 ± 1.2 h | Cmax [3, 16]: 240 ± 43 nM | AUC(0-inf) [3, 17]: 5.74 ± 0.68 µM·h | GI50 (HCT-116 p53WT): 0.473 ± 0.1 µM | GI50 (SAOS-2 (p53-null); SAOS-2, mean ± SD, n ≥ 8): 19.8 µM | IC50 (SAOS-2 (p53-null); SAOS-2 p53 null cells remained insensitive): ≥ 10 µM | GI50 [4]: 0.353 ± 0.172 µM | IC50 (HCT-116 p53-null; HCT-116 p53-null cells remained insensitive): ≥ 10 µM | GI50 (HCT-116 p53-null; mean ± SD, n ≥ 8): 15.9 µM | Oral BA ([5]; 1 mg/kg i.v., 3 mg/kg p.o.): 49 ± 15 %F | t1/2app. [5, 6]: 9.3 ± 1.9 h | AUC(0-inf) [5, 7]: 2.21 ± 0.21 µM·h | clearance [5, 8]: 12 ± 1 mL/min/kg | Vd [5, 9]: 8 ± 1.8 L/kg | Tmax ([5]; in vivo, po, 3 mg/kg p.o.): 4 ± 1.4 h | Cmax [5, 10]: 75 ± 23 nM | AUC(0-inf) [5, 11]: 1.07 ± 0.34 µM·h
